Results on 17 compounds are retold here after US6890948B1 (Cancer Research Technology Limited, priority 2000, dated 2005).

Like-named read-outs stand apart in the source and are kept apart here. Marks after values point to notes of the source that are not given here.

Data set [1] has as its system FaDu, nasopharyngeal squamous carcinoma cells. The data set can be described thus: GDEPT: clonogenic survival of cells transiently transfected with the HRP gene versus untransfected cells. The data set is classed as cell-based, human. The settings on record: for IC50: Homo sapiens; for factor: ratio of IC50 for transfected and untransfected cells. How it is done: (§1) Human bladder carcinoma T24 cells, MCF-7 mammary carcinoma cells (both from European Collection of Cell Cultures, Salisbury, UK), FaDu, nasopharyngeal squamous carcinoma cells (American Type Culture Collection, Manassas, Va.) were maintained in Dulbecco's modified Eagle's medium (DMEM) supplemented with 10% foetal calf serum, 2 mM L-glutamine, 100 U/ml penicillin, 100 µg/ml streptomycin, and incubated in a humidified incubator at 37° C. and 5% CO2/air. Only cells which tested negative for mycoplasma infection were utilised.
(§2) Following drug exposure, cells were rinsed with PBS and grown for 8 to 20 days in complete DMEM supplemented with feeder cells (V79 cells exposed to 250 Gy ^60Co irradiation). After fixation and staining with 2.5% crystal violet w/v in methylated spirit, colonies of >50 cells were scored. Surviving fractions were evaluated relative to HBSS-treated controls.

Data set [2] concerns MCF-7 mammary carcinoma cells. The description is as above. It counts as cell-based, human. The settings on record: for IC50: Homo sapiens; for factor: MCF-7, ratio of IC50 for transfected and untransfected cells. How it is done:
as §1, §2

For data set [3], the system named is Hamster lung fibroblast V79 cells. Description: Cytotoxic effects of compounds of formula (I) with horseradish peroxidase (HRP), clonogenic cell survival. It counts as cell-based. The settings on record: 2 hours treatment, mean ± standard error of three experiments unless n given. The method, then:
Hamster lung fibroblast V79 cells were obtained from the European Tissue Culture Collection. Cells were grown over the weekend in […] tissue culture flats as attached cells in Eagle's Modified Essential Medium (EMEM) supplemented with 10% foetal calf serum, 2 mM L-glutamine, 100 U/mL penicillin and 100 μg/mL streptomycin, and incubated in a humidified incubator at 37° C., in 5% CO2/air. […] The trypsin was deactivated by the addition of 10 mL spinner modified EMEM (supplemented with 7.5% foetal calf serum) and the cells allowed to grow in a spinning culture, pre-gassed with 5% CO2/air, maintaining the cells in logarithmic growth.
Cells were prepared for toxicity measurements by counting and plating 200, 2000 or 20,000 cells/6 cm Petri dish in 3 mL EMEM in triplicate for each sample. The cells were allowed to attach for at least 1 hour, then the medium removed and 2 mL phenol red free Hanks' balanced salt solution added, either alone (control) or with 50 or 100 μM of the compound of formula (I) to be tested. HRP (50 μL of 0.048 mg/mL) was added to the test dishes requiring it and the cells left in the incubator for 0, 0.5, 1, 1.5 or 2 hours. After the incubation time the drug was removed, the cells washed with 2 mL Hanks and then 4 mL EMEM added. The cells were allowed to grow for 7 days to colonies of >50 cells. After 7 days the medium was removed and the cells fixed with 75% methanol for 5 minutes. The methanol was then removed and the cells stained with 1% w/v crystal violet for 5 minutes. The cells were washed and colonies counted. Cell survival was determined by calculating the ratio of colonies growing compared to untreated control cells.
In table 1, values are the surviving fraction after 2 hours treatment with the IAA derivatives at the concentrations shown together with HRP (1.2 μg/mL). Unless otherwise indicated (by n=number of individual experiments), the means±the standard errors of three experiments are given.

Data set [4] has as its system Human bladder carcinoma T24 cells. Description: GDEPT: clonogenic survival of cells transiently transfected with the HRP gene versus untransfected cells. The data set is classed as cell-based. The settings on record: for IC50: Homo sapiens, T-24, 24 h; for factor: ratio of IC50 for transfected and untransfected cells. How it is done:
as §1, §2

Data set [5] can be described thus: Distribution of 5-fluoro-indole acetic acid in vivo in mice with the Carcinoma NT tumour. The settings on record: 50 mg/kg i.p., female CBA mice bearing Carcinoma NT tumour, up to 2 hours. The method, then: 5-fluoro-indole acetic acid (5 mg/mL) in 2% v/v ethanol/water was adjusted to pH 7.4 with NaOH and injected i.p. at a dose of 50 mg/kg into female CBA mice bearing the Carcinoma NT tumour (see example 8 for details). The mice were sacrificed up to 2 hours after drug administration and the blood and tissues removed immediately and placed on ice. The whole blood was spun down and the plasma stored at −20° C. Tissue sample were weighed and homogenised in 4 to 9 volumes of ice-cold water. The homogenised tissue was then stored at −20° C.
For HPLC analysis, plasma (50 μL) was mixed with IAA internal standard (130 μM, 25 μL) and protein precipitated with acetonitrile (50 μL). The samples were spun down and the supernatant injected directly for HPLC analysis. For tissue levels, samples (250 μL) was mixed with IAA internal standard (130 μM, 25 μL) and precipitated with acetonitrile (250 μL) for direct injection for HPLC analysis. HPLC analysis was carried out with a Hypersil SODS 125×4.6 mm column eluting with A; 75% acetonitrile and B: 20 mM ammonium acetate (pH 5.1) with a gradient of 15-70% A in 10 minutes at 2 mL/minute. Detection was at 290 nm using a Waters 486 variable wavelength detector.

The mark [6] stands for this setting: 100 μM IAA derivative together with HRP (1.2 μg/mL), 0^a = all cells killed, 1^b = no detectable effect.
Where [7] appears, read: 50 μM IAA derivative together with HRP (1.2 μg/mL).

Consider `O=C(O)Cc1c[nH]c2ccc(-c3ccc(Cl)cc3)cc12` [SR150, 5-(4-Chlorophenyl)indole-3-acetic acid], for which the melting point lay in the range of 166 to 168 °C.
Regarding `O=C(O)Cc1c[nH]c2ccc(Br)cc12` [Compound 5-bromo, 5-bromo-indole-3-acetic acid], the IC50 in data set [1] (24 h, read-out: IC50 HRP+) was 7 µM; in data set [1] (24 h, read-out: IC50 HRP−), 600 µM; in data set [2] (MCF7, 24 h, read-out: IC50 HRP+), 7 µM; in data set [2] (MCF7, 24 h, read-out: IC50 HRP−), 500 µM; in data set [4] (read-out: IC50 HRP+, T24 (anoxic), transfected cells, 24 hours exposure in anaerobic cabinet) it was 7 µM; in data set [4] (read-out: IC50 HRP+, T24 (normoxic), transfected cells, 24 hours exposure, estimated from survival curves), 6 µM. In addition, the IC50 in data set [4] (read-out: IC50 HRP−, T24 (anoxic), untransfected cells, 24 hours exposure in anaerobic cabinet) came to 1000 µM; in data set [4] (read-out: IC50 HRP−, T24 (normoxic), untransfected cells, 24 hours exposure) it was 600 µM. The factor in data set [1] was determined as 86; in data set [2] it was 71; in data set [4] (T24 (anoxic)) it was 43; in data set [4] (T24 (normoxic)) it was 100. In data set [3] (setting [6]), the surviving fraction amounted to 0.00004 ± 0.00003.
The compound `O=C(O)Cc1c[nH]c2ccc(Cl)cc12` [SR024, 5-Chloroindole-3-acetic acid] had a melting point of 160 to 161 °C. The surviving fraction in data set [3] (setting [6]) was determined as 0.0027 ± 0.0022.
On to `Cc1ccc(F)c2[nH]cc(CC(=O)O)c12` [SR148, 7-Fluoro-4-methylindole-3-acetic acid], for which the melting point is 162 to 164 °C (dec.).
In turn, `O=C(O)Cc1c[nH]c2cc(F)ccc12` [SR043, 6-Fluoroindole-3-acetic acid] returned a melting point of 161 to 163 °C. Also, in data set [3] (setting [6]), the surviving fraction was 0.00995 (n = 2).
Regarding `O=C(O)Cc1c[nH]c2c(F)cc(Cl)cc12` [SR091, 5-Chloro-7-fluoroindole-3-acetic acid], the melting point was 164 to 166 °C.
In turn, `O=C(O)Cc1c[nH]c2ccc(OC(F)(F)F)cc12` [SR073, 5-Trifluoromethoxyindole-3-acetic acid] had a melting point of 120 to 122 °C.
`O=C(O)Cc1c[nH]c2c(Cl)cccc12` [SR052, 7-Chloroindole-3-acetic acid] gave a melting point of 164 to 165 °C. The surviving fraction in data set [3] (setting [6]) is 0.000042 (n = 1).
Take `O=C(O)Cc1c[nH]c2ccc(F)cc12` [Compound 5-fluoro, 5-fluoro-indole-3-acetic acid]: the “concentration in the tumour” value in data set [5] was “sufficient concentrations to achieve a cytotoxic effect are attained in the tumour”. Besides, the “levels in the kidney” value in data set [5] is given as “High levels in the kidney”. For the same compound, the IC50 in data set [1] (transfected cells, 24 hours exposure, read-out: IC50 HRP+) was 20 µM; in data set [1] (untransfected cells, 24 hours exposure, read-out: IC50 HRP−), 1200 µM; in data set [2] (MCF7, MCF-7, transfected cells, 24 hours exposure, read-out: IC50 HRP+), 250 µM; in data set [2] (MCF7, MCF-7, untransfected cells, 24 hours exposure, read-out: IC50 HRP−), 400 µM; in data set [4] (T24 (anoxic), transfected cells, 24 hours exposure in anaerobic cabinet, read-out: IC50 HRP+), 30 µM; in data set [4] (T24 (anoxic), untransfected cells, 24 hours exposure in anaerobic cabinet, read-out: IC50 HRP−) it was 2300 µM. The IC50 is 40 µM in data set [4] (T24 (normoxic), transfected cells, 24 hours exposure, estimated from survival curves, read-out: IC50 HRP+) and 3500 µM in data set [4] (T24 (normoxic), untransfected cells, 24 hours exposure, read-out: IC50 HRP−). Also, the factor worked out at 60 in data set [1], 1.6 in data set [2], 77 in data set [4] (T24 (anoxic)) and 88 in data set [4] (T24 (normoxic)). Besides, the surviving fraction in data set [3] (setting [7]) was 0.0045 ± 0.003; in data set [3] (setting [6]), 0^a.
As to `Cn1cc(CC(=O)O)c2ccc(Cl)cc21` [SR139, 6-Chloro-1-methylindole-3-acetic acid], the melting point is 130 to 132 °C (dec.).
As for `Cc1cc(F)c2[nH]cc(CC(=O)O)c2c1` [SR109, 7-Fluoro-5-methylindole-3-acetic acid], the melting point lay within 138 to 140 °C.
In the case of `Cc1[nH]c2ccc(F)cc2c1CC(=O)O` [SR036, 5-Fluoro-2-methylindole-3-acetic acid], the melting point lay within 182 to 184 °C.
For `O=C(O)Cc1c[nH]c2cc(Cl)ccc12` [SR058, 6-Chloroindole-3-acetic acid], the melting point was 183 to 185 °C. For the same compound, in data set [3] (setting [7]), the surviving fraction was 0.00085 (n = 1). The surviving fraction in data set [3] (setting [6]) is given as 0^a.
Compound `O=C(O)Cc1c[nH]c2c(F)cccc12` [SR022, 7-Fluoroindole-3-acetic acid] yielded a melting point of 159 to 161 °C. The compound further gave a surviving fraction in data set [3] (setting [7]) of 0.053 ± 0.022. Besides, the surviving fraction in data set [3] (setting [6]) is listed as 0^a.
In the same order, the values of `O=C(O)Cc1c[nH]c2cc(Br)ccc12` [SR069, 6-Bromoindole-3-acetic acid] are 174 to 176 °C, 0.0031 ± 0.0023 and 0^a.
`O=C(O)Cc1c[nH]c2cc(Cl)cc(Cl)c12` [SR085, 4,6-Dichloroindole-3-acetic acid] came in with a melting point of 223 to 224 °C.
With `O=C(O)Cc1c[nH]c2cccc(F)c12` [SR039, 4-Fluoroindole-3-acetic acid], the melting point fell in the range of 129 to 131 °C. The same compound gave a surviving fraction in data set [3] (setting [6]) of 0.000085 ± 0.00007.
